Measurements from patent US9309187B2, “EP2 receptor agonists” (TAKEDA GMBH, priority 2012, dated 2016).

Key:
[1] = system: plasma TNFα after i.v. LPS; assay: In vivo assay: LPS-induced TNFα release in rats; set-up: species or system Sprague Dawley rats; details: Rattus norvegicus; p.o. 1 h prior to i.v. LPS 20 μg/kg; plasma TNFα 1 h after LPS
Experimental: In Vivo Assay: LPS-Induced TNFα Release in Rats
Intravenously administration of lipopolysaccharide (LPS) causes a systemic inflammation characterised by release of pro-inflammatory cytokines, e.g. tumor necrosis factor alpha (TNFα). Selective EP2 agonists are administered per oral 1 h prior intravenously LPS challenge in rats. The anti-inflammatory activity of the selective EP2 agonists is assessed based on TNFα levels in blood plasma 1 h after LPS exposure.
Male Sprague Dawley rats weighing 250-300 g were used. Rats were delivered 1 week prior to the experiments and had free access to water and food.
The test compound was mixed with 1.33% polyethylenglycol 400 (PEG400, Merck, Darmstadt, Germany) and subsequently suspended in 2% methocel solution (hypromellose, Sigma, Steinheim, Germany) containing Antifoam C Emulsion (Sigma, Steinheim, Germany, 0.1 mL/15 mL) using a mixing device (ULTRA-TURRAX T8 basic, VDI12, VWR International GmbH). The aimed doses were prepared by dilution series from the stock suspension, which was prepared for the administration of the highest dose in each experiment.
The administered volume of the compound suspension is 10 mL/kg. On day of the experiment the rat body weights were documented to calculate the volume to be administered. LPS challenged control animals received drug-free vehicle solution as placebo. Test compounds and vehicle were administered by oral gavage 1 h prior to LPS challenge.
LPS (from Escherichia coli 055:B5, Sigma, Steinheim, Germany) was solubilised in 0.9% sterile NaCl solution (B. Braun Melsungen AG, Melsungen, Germany) containing 0.1% hydroxylamine (Sigma, Steinheim, Germany). LPS is intravenously (i.v.) injected at a dose of 20 μg/kg (1 mL/kg b.w.) 1 h after compound or vehicle administration.
One hour after LPS-challenge, the animals were sacrificed by inhalative isofluran anaesthesia and subsequently cervical dislocation. Heparinised blood was obtained by heart puncture. Blood was centrifuged (21,000×g, 4° C., 10 min), and plasma samples were kept frozen at −20° C. until determination of TNFα levels by ELISA. TNFα was measured with a commercially available ELISA-Kit (Quantikine®, Rat TNFα/TNFSF1A, R&D Systems, Minneapolis, USA).
The compound effect on TNFα release was calculated individually in percent (%) for each compound treated animal in relation to the mean TNFα level of the vehicle treated LPS-challenged control group: % effect=(Y−K)/K*100 • with defining: • Y=plasma TNFα concentration of the compound treated animal • K=mean plasma TNFα concentration of the vehicle treated group
Statistical analysis was performed on the primary TNFα concentrations by One-Way ANOVA and Dunnett's Multiple Comparison test vs. vehicle treated control group.

[2] = system: TNFalpha release in human peripheral blood mononuclear cells (PBMC) stimulated with LPS; assay: Inhibition of LPS induced TNFalpha release in human PBMCs; type: cell-based; details: 1 ng/mL LPS, 24 hours, reported as range bins, read-out: Inhibition of LPS induced TNFalpha release in human PBMCs pIC30 (-log IC30)
Experimental: Method for Measuring the Inhibition of TNFalpha Release in Human Peripheral Blood MononuClear Cells (PBMC) Stimulated with LPS:
Assay was performed with some modifications of the method described by Hatzelmann and Schudt (Hatzelmann and Schudt 2001, J. Pharmacol. Exp. Therapeutics 297: 267-279) and the protocol “drawing of venous blood from healthy volunteers for in vitro studies” was approved by the ethics committee of the Landesärztekammer Baden Württemberg in Stuttgart. Peripheral blood mononuclear cells (PBMCs) were isolated from venous blood with the anticoagulant citrate from healthy donors according to standard protocols using Ficoll. The cell layer of PBMCs were washed twice with phosphate buffer solution and equilibrated at room temperature for 60 minutes. 500,000 PBMCs in 180 microL RPMI1640 cell medium supplemented with 10% FCS, NEAA (Non-essential-amino-acids), L-Glutamine and Sodium Pyruvate per sample were pre-incubated with 10 microL of a serial dilution of test compound or piclamilast as positive control for 60 min. at 37° C. After pre-incubation blood samples were stimulated by the addition of 10 microL LPS (Sigma, Aldrich) per sample resulting in a final concentration of 1 ng/mL LPS and a final volume of 200 microL. Cells were incubated for 24 hours at 37° C. TNFalpha levels were determined from cell supernatant that was obtained by a centrifugation step and transferring the supernatant to a new 96-well plate. Content of TNFalpha was determined via alphaLISA Technology according to manufacture protocol (Perkin Elmer).
(§1) PBMC samples that were not stimulated with LPS were used as control and set for 100% inhibition. PBMC samples that were stimulated with LPS and solvent instead of test compound were set as 0% inhibition. Percent inhibition was calculated based on these controls for each sample and since most compounds achieved saturating maximal inhibition of 60% a pIC30 value was calculated with GraphPad Prism Software.
For the following compounds the inhibitory values of TNFalpha release [determined as −log IC30=pIC30] in human PBMCs between 5.0 and 5.9, between 6.0 and 6.9, between 7.0 and 7.9 and between 8.0 and 9.0 have been determined. The numbers of the compounds correspond to the examples numbers.
Inhibition of LPS Induced TNFalpha Release Assay in Human PBMCs: pIC30

[3] = system: TNFalpha release in human whole blood stimulated with LPS; assay: Inhibition of LPS induced TNFalpha release in human whole blood; type: cell-based; details: 1 microg/mL LPS, 4 hours, reported as range bins, read-out: Inhibition of LPS induced TNFalpha release in human whole blood pIC30 (-log IC30)
Experimental: Method for Measuring the Inhibition of TNFalpha Release in Human Whole Blood Stimulated with LPS:
Assay was performed with some modifications of the method described by Hatzelmann and Schudt (Hatzelmann and Schudt (2001) JPET 297: 267-279) and the protocol “drawing of venous blood from healthy volunteers for in vitro studies” was approved by the ethics committee of the Landesärztekammer Baden Württemberg in Stuttgart.
Heparinised venous blood was equilibrated to assay conditions for 1 hour at room temperature upon blood drawing. Immediately thereafter, 200 microL whole blood per sample were pre-incubated with 25 microL of a serial dilution of test compound or piclamilast as positive control for 30 min. at 37° C. After pre-incubation blood samples were stimulated by the addition of 25 microL lipopolysaccharide (LPS) (Sigma, Aldrich) per sample resulting in a final concentration of 1 microg/mL LPS and a final volume of 250 microL. Cells were incubated for 4 hours at 37° C. TNFalpha levels were determined from plasma that was obtained by a centrifugation step and transferring the supernatant to a new 96-well plate which was again centrifuged and clear plasma supernatant was used for the measurement of TNFalpha via alphaLISA Technology according to manufacture protocol (Perkin Elmer).
as §1, with “Whole blood” for “PBMC”
For the following compounds the inhibitory values of TNFalpha release [determined as −log IC30=pIC30] in the human whole blood assay between 4.5 and 4.9, between 5.0 and 5.9 and between 6.0 and 6.9 have been determined. The numbers of the compounds correspond to the examples numbers.
Inhibition of LPS Induced TNFalpha Release Assay in Human Whole Blood: pIC30

SMILES	ED50 [1]	IC30 [2]	IC30 [3]
O=C(O)/C=C/c1ccc(F)c(NC(=O)c2cc(-c3ccccc3)cc3ccccc23)c1 [Example 2, (2E)-3-(4-fluoro-3-{[(3-phenylnaphthalen-1-yl)carbonyl]amino}phenyl)prop-2-enoic acid]	0.1 to 3 mg/kg	1 to 10 nM	126 to 1000 nM
O=C(O)/C=C/c1ccc(Cl)c(NC(=O)c2cc(-c3ccccc3)cc3ccccc23)c1 [Example 3, (2E)-3-(4-chloro-3-{[(3-phenylnaphthalen-1-yl)carbonyl]amino}phenyl)prop-2-enoic acid]	0.1 to 3 mg/kg	–	12600 to 31600 nM
O=C(O)/C=C/c1cccc(NC(=O)c2cc(-c3ccccc3)cc3ccccc23)c1 [Example 1, (2E)-3-(3-{[(3-phenylnaphthalen-1-yl)carbonyl]amino}phenyl)prop-2-enoic acid]	0.1 to 3 mg/kg	1 to 10 nM	126 to 1000 nM
O=C(O)/C=C/c1ccc(F)c(NC(=O)c2cc(-c3cccc(F)c3)cc3ccccc23)c1 [Example 10, (2E)-3-{3-[({3-[3-fluorophenyl]naphthalen-1-yl}carbonyl)amino]-4fluorophenyl}prop-2-enoic acid]	0.1 to 3 mg/kg	1 to 10 nM	126 to 1000 nM
O=C(O)/C=C/c1ccc(F)c(NC(=O)c2cc(-c3ccccc3F)cc3ccccc23)c1 [Example 9, (2E)-3-{3-[({3-[2-fluorophenyl]naphthalen-1-yl}carbonyl)amino]-4fluorophenyl}prop-2-enoic acid]	0.1 to 3 mg/kg	12.6 to 100 nM	126 to 1000 nM
